# From patent US8287923B2, “Compositions and methods for treating immune disorders” (priority 2005, dated 2012)
# Tested on: normal human epidermal keratinocytes (NHEK)
# Experiment: Affymetrix gene array analysis, autoantigen gene expression
# Format: cell-based
# Conditions: 100 μM
# Protocol: The gene array experiment was performed at the Core Facility of Genomics of the Medical College of Georgia, according to the instructions of the manufacturer (Affymetrix, Santa Clara, Calif.). Briefly, NHEK and OSC2 cells treated with 100 μM EGCG for different time period were extracted for total RNA, the RNA was processed for probes and hybridized with a cDNA microarray (HuG133A, Affymetrix) which represents 22,283 human series. DNA chips were read with a Hewlett-Packard GeneArray Scanner at a resolution of […] and were analyzed with the GeneSpring software (Silicon Genetics, Redwood City, Calif.). Details of this analysis will be published elsewhere (Hsu et al., manuscript in preparation).
# Gene assays provide a valuable tool for studying the broad response of cells to agents, and we have used this approach to compare the differential effects of GTPP on gene expression in NHEK and human oral squamous carcinoma cells (Hsu, et al, manuscript in preparation). […] See also Hsu, S. et al. (2005) JPET 315:805-811, which is incorporated by reference in its entirety.
compound,measurement,setting,value
"O=C(O[C@@H]1Cc2c(O)cc(O)cc2O[C@@H]1c1cc(O)c(O)c(O)c1)c1cc(O)c(O)c(O)c1 [EGCG, (−)-epigallocatechin-3-gallate]","60 kDa, SS-A/Ro (210438_x_at) expression, normalized",2 h,0.92
same,"60 kDa, SS-A/Ro (212852_s_at) expression, normalized",2 h,0.98
same,"Ku autoantigen, 80 kDa (208642_s_at) expression, normalized",2 h,1.14
same,"Ku autoantigen, 80 kDa (208643_s_at) expression, normalized",2 h,1.40
same,"Nuclear antigen SP100 (202863_at) expression, normalized",2 h,1.04
same,"Nuclear antigen SP100 (202864_s_at) expression, normalized",2 h,1.21
same,"Nuclear antigen SP10075 kDa (213226_at) expression, normalized",2 h,1.09
same,"RNA polymerase 1 (202692_s-at) expression, normalized",2 h,0.48
same,"SS-B/La (201138_s_at) expression, normalized",2 h,0.88
same,"SS-B/La (201139_s_at) expression, normalized",2 h,0.74
same,"centromere protein C1 (20473_at) expression, normalized",2 h,0.46
same,"coilin (203653_s_at) expression, normalized",2 h,0.54
same,"coilin (203654_s_at) expression, normalized",2 h,0.78
same,"fodrin-α (208611_s_at) expression, normalized",2 h,0.75
same,"fodrin-α (215235_s_at) expression, normalized",2 h,0.97
same,"golgin-67 (208797_s_at) expression, normalized",2 h,0.71
same,"golgin-67 (208798_x_at) expression, normalized",2 h,0.46
same,"golgin-67 (210425_x_at) expression, normalized",2 h,0.47
same,"golgin-67 (213650_at) expression, normalized",2 h,0.61
same,"scleroderma autoantigen 1, 75 kDa (213226_at) expression, normalized",2 h,1.09
same,"spectrin-β non-erythrocyctic 1 (212071_s_at) expression, normalized",2 h,0.92
same,"thyroid autoantigen 70 kDa (Ku antigen) (200792_at) expression, normalized",2 h,1.19
same,ADPRT [poly(ADP)-ribose polymerase] expression,"2 h, vs time zero",1.201 fold
same,ANAP12 expression,"2 h, vs time zero",0.991 fold
same,ANXA11 expression,"2 h, vs time zero",1.26 fold
same,CALR expression,"2 h, vs time zero",0.943 fold
same,CBARA1 expression,"2 h, vs time zero",0.773 fold
same,CENPA expression,"2 h, vs time zero",1.095 fold
same,CENPB expression,"2 h, vs time zero",0.773 fold
same,CENPC1 expression,"2 h, vs time zero",0.457 fold
same,CHD4 expression,"2 h, vs time zero",0.811 fold
same,COL17A1 expression,"2 h, vs time zero",1.102 fold
same,CTDSP1 expression,"2 h, vs time zero",1.00 fold
same,CTDSP2 expression,"2 h, vs time zero",1.21 fold
same,CTDSPL expression,"2 h, vs time zero",1.12 fold
same,DLAT expression,"2 h, vs time zero",0.924 fold
same,EPPK1 expression,"2 h, vs time zero",0.856 fold
same,FBL expression,"2 h, vs time zero",1.12 fold
same,FLJ31657 expression,"2 h, vs time zero",0.608 fold
same,"FLNB (Filamin B, β) expression","2 h, vs time zero",1.168 fold
same,"FLNB (Filamin B, γ) expression","2 h, vs time zero",0.92 fold
same,"G22P1 (Thyroid autoantigen, 70 kDa, Ku antigen) expression","2 h, vs time zero",1.185 fold
same,GMEB2 expression,"2 h, vs time zero",0.739 fold
same,GOLGA1 expression,"2 h, vs time zero",0.182 fold
same,GOLGA2 expression,"2 h, vs time zero",0.642 fold
same,GOLGA3 expression,"2 h, vs time zero",0.58 fold
same,GOLGA4 expression,"2 h, vs time zero",0.748 fold
same,GOLGA5 expression,"2 h, vs time zero",0.928 fold
same,GOLGB1 expression,"2 h, vs time zero",0.704 fold
same,HARS expression,"2 h, vs time zero",1.11 fold
same,HARSL expression,"2 h, vs time zero",1.05 fold
same,HSA6591 expression,"2 h, vs time zero",0.835 fold
same,HUMAUANTIG expression,"2 h, vs time zero",0.779 fold
same,IMP-2 expression,"2 h, vs time zero",1.366 fold
same,LAD1 expression,"2 h, vs time zero",0.681 fold
same,LMO4 expression (repeat 1),"2 h, vs time zero",0.867 fold
same,LMO4 expression (repeat 2),"2 h, vs time zero",1.199 fold
same,MGC5560 expression (repeat 1),"2 h, vs time zero",1.161 fold
same,MGC5560 expression (repeat 2),"2 h, vs time zero",0.932 fold
same,NS (Nucleostemin) expression,"2 h, vs time zero",0.95 fold
same,PDHB expression,"2 h, vs time zero",1.14 fold
same,PDX1 expression,"2 h, vs time zero",0.765 fold
same,"PMSCL1, 75 kDa expression","2 h, vs time zero",1.09 fold
same,PMSCL2 expression,"2 h, vs time zero",0.938 fold
same,POLR1B expression,"2 h, vs time zero",1.03 fold
same,POLR1D expression,"2 h, vs time zero",0.96 fold
same,POLR2A expression (repeat 1),"2 h, vs time zero",1.29 fold
same,POLR2A expression (repeat 2),"2 h, vs time zero",0.45 fold
same,POLR2B expression,"2 h, vs time zero",1.02 fold
same,POLR2C expression,"2 h, vs time zero",1.60 fold
same,POLR2D expression,"2 h, vs time zero",0.95 fold
same,POLR2E expression,"2 h, vs time zero",0.70 fold
same,POLR2F expression,"2 h, vs time zero",1.00 fold
same,POLR2G expression,"2 h, vs time zero",1.02 fold
same,POLR2H expression,"2 h, vs time zero",0.85 fold
same,POLR3C expression,"2 h, vs time zero",0.73 fold
same,POLR3G expression,"2 h, vs time zero",1.00 fold
same,PSME3 expression,"2 h, vs time zero",1.151 fold
same,RALY expression,"2 h, vs time zero",0.752 fold
same,SART1 expression,"2 h, vs time zero",1.188 fold
same,SLC25A16 expression,"2 h, vs time zero",0.886 fold
same,SNRP70 expression,"2 h, vs time zero",1.01 fold
same,SNRPA expression,"2 h, vs time zero",0.93 fold
same,SNRPB2 expression,"2 h, vs time zero",0.67 fold
same,SNRPB expression (repeat 1),"2 h, vs time zero",0.95 fold
same,SNRPB expression (repeat 2),"2 h, vs time zero",0.79 fold
same,SNRPC expression,"2 h, vs time zero",1.08 fold
same,SNRPD1 expression (repeat 1),"2 h, vs time zero",1.285 fold
same,SNRPD1 expression (repeat 2),"2 h, vs time zero",0.676 fold
same,SOX13 expression,"2 h, vs time zero",0.771 fold
same,SP100 expression (repeat 1),"2 h, vs time zero",1.037 fold
same,SP100 expression (repeat 2),"2 h, vs time zero",1.205 fold
same,SP110 expression (repeat 1),"2 h, vs time zero",1.702 fold
same,SP110 expression (repeat 2),"2 h, vs time zero",1.804 fold
same,SP110 expression (repeat 3),"2 h, vs time zero",1.026 fold
same,SPTAN1 (α-fodrin) expression (repeat 1),"2 h, vs time zero",0.75 fold
same,SPTAN1 (α-fodrin) expression (repeat 2),"2 h, vs time zero",0.97 fold
same,SPTBN expression,"2 h, vs time zero",0.92 fold
same,SSA2 (autoantigen SS-A/Ro) expression (repeat 2),"2 h, vs time zero",0.919 fold
same,SSA2 expression (repeat 1),"2 h, vs time zero",0.335 fold
same,SSA2 expression (repeat 3),"2 h, vs time zero",0.957 fold
same,SSA2 expression (repeat 4),"2 h, vs time zero",0.98 fold
same,SSB (autoantigen La) expression (repeat 1),"2 h, vs time zero",0.878 fold
same,SSB (autoantigen La) expression (repeat 2),"2 h, vs time zero",0.739 fold
same,SSNA1 expression,"2 h, vs time zero",1.17 fold
same,SSSCA1 expression,"2 h, vs time zero",1.694 fold
same,STRN3 expression,"2 h, vs time zero",0.623 fold
same,TOP1 expression (repeat 1),"2 h, vs time zero",1.09 fold
same,TOP1 expression (repeat 2),"2 h, vs time zero",0.62 fold
same,UBTF expression,"2 h, vs time zero",0.484 fold
same,"XRCC5 (Ku autoantigen, 80 kDa) expression (repeat 1)","2 h, vs time zero",1.403 fold
same,"XRCC5 (Ku autoantigen, 80 kDa) expression (repeat 2)","2 h, vs time zero",1.141 fold
same,dJ963E22.1 expression,"2 h, vs time zero",0.864 fold
same,α-NAC expression,"2 h, vs time zero",0.521 fold
same,"60 kDa, SS-A/Ro (210438_x_at) expression, normalized",6 h,0.69
